From BindingDB's records for doi:10.1021/jm800936s (University of Oxford, 2008)

What follows are compounds tested against T1, Lysine-specific demethylase 4E (Homo sapiens, UniProt B2RXH2) (assay: FDH Coupled Inhibition Assay). Conditions: pH 7.5; 37 °C.
T1 sequence (B2RXH2 whole entry): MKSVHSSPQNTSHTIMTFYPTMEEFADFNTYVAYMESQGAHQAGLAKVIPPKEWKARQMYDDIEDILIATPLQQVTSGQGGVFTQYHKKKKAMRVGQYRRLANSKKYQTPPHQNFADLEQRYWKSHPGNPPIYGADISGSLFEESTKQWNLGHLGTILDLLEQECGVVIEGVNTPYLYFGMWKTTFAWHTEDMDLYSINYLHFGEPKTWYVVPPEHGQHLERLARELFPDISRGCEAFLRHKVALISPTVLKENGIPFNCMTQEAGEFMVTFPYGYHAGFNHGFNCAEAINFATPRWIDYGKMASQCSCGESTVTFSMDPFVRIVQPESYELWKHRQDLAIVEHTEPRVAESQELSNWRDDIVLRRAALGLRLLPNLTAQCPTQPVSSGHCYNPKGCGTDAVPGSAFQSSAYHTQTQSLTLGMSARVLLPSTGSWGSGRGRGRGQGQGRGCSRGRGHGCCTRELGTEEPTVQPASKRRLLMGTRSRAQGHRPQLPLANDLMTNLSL
Method: A coupled-assay for JMJD2E activity employing formaldehyde dehydrogenase (FDH) from Pseudomonas putida was developed. Formaldehyde release by demethylation of the histone peptide substrate was monitored by its oxidation to give formate as catalyzed by FDH, which is carried out concomitantly with the reduction of NAD+. The production of NADH was monitored by fluorescence spectroscopy.

SMILES	IC50 [mM]
CCCC(=O)O [butanoic acid]	> 10
O=C(O)c1cccnc1C(=O)O [pyridine-2,3-dicarboxylic acid]	> 5
COC(=O)c1ccnc(-c2cc(C(=O)O)ccn2)c1 [2-[4-(methoxycarbonyl)pyridin-2-yl]pyridine-4-carboxylic acid]	0.0066

Next, values leading:

IC50 [mM]	SMILES
> 10	O=C(O)c1cncc(C(=O)O)c1 [pyridine-3,5-dicarboxylic acid]
> 10	O=C(O)c1ccncc1C(=O)O [pyridine-3,4-dicarboxylic acid]
